Numbered stars: 1 amine (or outer) side, 2 acyl side, 3 side chain; on linkers, the order of the positions; unused ones are H or OH. Bridge positions count the residues as written; N and C are the ends. Square brackets hold non-standard residues; d marks the D form. Side chains are listed from the residue outwards. Peptide text beside a SMILES is read from it. * marks the point of attachment. Ala(imidazo(1,2-a)pyr3yl) = N[C@@H](Cc1cnc2ccccn12)C(=O)O; Trp(1-CH2COOH) = N[C@@H](Cc1cn(CC(=O)O)c2ccccc12)C(=O)O; CH2CON(CH2CH2)2NCH2COOH = O=C(O)CN1CCN(C(=O)C*)CC1; NMePhe(4-COOH) = CN[C@@H](Cc1ccc(C(=O)O)cc1)C(=O)O; Ala(2-NH2-4-pyridyl) = Nc1cc(C[C@H](N)C(=O)O)ccn1; Nle(6-morpholino) = N[C@@H](CCCCN1CCOCC1)C(=O)O; Phe(3-COOH) = N[C@@H](Cc1cccc(C(=O)O)c1)C(=O)O; Trp(7-aza) = N[C@@H](Cc1c[nH]c2ncccc12)C(=O)O; NH(CH2CH2O)8Me = COCCOCCOCCOCCOCCOCCOCCOCCN*; NMePhe(3-Cl) = CN[C@@H](Cc1cccc(Cl)c1)C(=O)O; Piperazinyl(4-CH2COOH) = O=C(O)CN1CCN(*)CC1; X5 = COc1cc(C[C@H](N[*:1])C(=O)[*:2])ccn1; 3Pal(6-NH2) = Nc1ccc(C[C@H](N)C(=O)O)cn1; NMeY = CN[C@@H](Cc1ccc(O)cc1)C(=O)O; Nva(3-Et) = CCC(CC)[C@H](N)C(=O)O; 4Pal = N[C@@H](Cc1ccncc1)C(=O)O; PEG4 = NCCOCCOCCOCCOCCC(=O)O; Carboxymethyl = O=C(O)C*; CO = O=C([*:1])[*:2]
What was measured:
[1] = biological target: T1, human transferrin receptor (hTfR) (Homo sapiens, UniProt P02786); experiment: SPR measurement under pH 7.4 conditions (Biacore T200, CM3 chip, hTfR captured by His Tag antibody); format: binding; conditions: read-out: hTfR SPR pH7.4 KD
[2] = biological target: T1, human transferrin receptor (hTfR); experiment: SPR measurement under pH 6.0 conditions (Biacore T200, NTA chip, immobilized hTfR); format: binding; conditions: read-out: hTfR SPR pH6.0 KD
[3] = SPR, pH 7.4, peptide with the linker named in the table
[4] = SPR, pH 6.0, peptide with the linker named in the table

T1 sequence (P02786 whole entry): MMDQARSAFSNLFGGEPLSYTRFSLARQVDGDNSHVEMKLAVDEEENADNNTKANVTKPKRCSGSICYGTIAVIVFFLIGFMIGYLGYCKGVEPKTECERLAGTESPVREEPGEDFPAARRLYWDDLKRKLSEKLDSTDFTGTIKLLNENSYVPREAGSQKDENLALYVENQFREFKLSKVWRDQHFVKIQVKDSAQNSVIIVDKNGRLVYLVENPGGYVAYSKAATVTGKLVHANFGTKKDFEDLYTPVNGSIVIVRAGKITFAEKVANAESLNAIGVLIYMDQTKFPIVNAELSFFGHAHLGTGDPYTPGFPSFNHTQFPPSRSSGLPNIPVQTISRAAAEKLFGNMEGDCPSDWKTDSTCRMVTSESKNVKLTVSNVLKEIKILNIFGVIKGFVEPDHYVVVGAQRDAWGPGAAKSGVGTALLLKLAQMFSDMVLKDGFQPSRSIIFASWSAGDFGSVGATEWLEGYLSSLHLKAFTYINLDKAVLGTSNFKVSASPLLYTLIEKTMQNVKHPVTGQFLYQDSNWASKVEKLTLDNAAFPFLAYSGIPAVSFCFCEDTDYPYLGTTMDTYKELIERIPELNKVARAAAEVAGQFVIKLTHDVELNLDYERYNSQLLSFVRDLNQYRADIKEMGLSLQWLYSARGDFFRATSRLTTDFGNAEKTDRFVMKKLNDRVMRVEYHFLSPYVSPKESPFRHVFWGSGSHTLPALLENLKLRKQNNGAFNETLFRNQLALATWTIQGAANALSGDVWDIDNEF

SMILES | Kd [1, 3] [nM] | Kd [2, 4] [nM] | Kd ([1]; pH 7.4, single-cycle kinetics) [nM] | Kd ([2]; pH 6.0, single-cycle kinetics) [nM]
CCC(CC)[C@@H]1NC(=O)[C@H](Cc2ccc(OCC(=O)O)cc2)NC(=O)[C@H](Cc2ccc(O)cc2)NC(=O)[C@H](CC(N)=O)NC(=O)[C@H](Cc2cn(CC(=O)O)c3ccccc23)NC(=O)[C@H](C(C)C)NC(=O)[C@H](Cc2cccc(Cl)c2)N(C)C(=O)[C@H](C(C)C)NC(=O)[C@H](C)NC(=O)CSC[C@@H](C(=O)NCCOCCOCCOCCOCCC(N)=O)NC(=O)[C@H](Cc2ccc(O)cc2)N(C)C(=O)[C@H](Cc2ccnc(N)c2)NC(=O)[C@H](CCCNC(=N)N)NC(=O)[C@H](CCC(N)=O)NC(=O)[C@H]([C@@H](C)CC)NC1=O [compound 104] ({CH2CO}-AV[NMePhe(3-Cl)]V[Trp(1-CH2COOH)]NYY(Carboxymethyl)[Nva(3-Et)]IQR[Ala(2-NH2-4-pyridyl)][NMeY]C[PEG4]-NH2; thioether N-15) | 10.7 | 78.2 | – | –
CCC(CC)[C@@H]1NC(=O)[C@H](Cc2ccc(OCC(=O)O)cc2)NC(=O)[C@H](Cc2ccc(O)cc2)NC(=O)[C@H](CC(N)=O)NC(=O)[C@H](Cc2cn(CC(=O)O)c3ccccc23)NC(=O)[C@H](C(C)C)NC(=O)[C@H](Cc2cccc(Cl)c2)N(C)C(=O)[C@H](C(C)C)NC(=O)[C@H](C)NC(=O)CSC[C@@H](C(=O)NCCOCCOCCOCCOCCC(N)=O)NC(=O)[C@H](Cc2ccc(O)cc2)N(C)C(=O)[C@H](Cc2ccnc(OC)c2)NC(=O)[C@H](CCCNC(=N)N)NC(=O)[C@H](CCC(N)=O)NC(=O)[C@H]([C@@H](C)CC)NC1=O [compound 103] ({CH2CO}-AV[NMePhe(3-Cl)]V[Trp(1-CH2COOH)]NYY(Carboxymethyl)[Nva(3-Et)]IQR[X5][NMeY]C[PEG4]-NH2; thioether N-15) | 11.5 | 95 | – | –
CCC(CC)[C@@H]1NC(=O)[C@H](Cc2ccc(OC)cc2)NC(=O)[C@H](Cc2ccc(O)cc2)NC(=O)[C@H](CC(N)=O)NC(=O)[C@H](Cc2c[nH]c3ncccc23)NC(=O)[C@H](C(C)C)NC(=O)[C@H](Cc2cccc(Cl)c2)N(C)C(=O)[C@H](C(C)C)NC(=O)[C@H](C)NC(=O)CSC[C@@H](C(=O)NCCOCCOCCOCCOCCC(N)=O)NC(=O)[C@H](Cc2ccc(C(=O)O)cc2)N(C)C(=O)[C@H](Cc2ccncc2)NC(=O)[C@H](CCCNC(=N)N)NC(=O)[C@H](CCCCN2CCOCC2)NC(=O)[C@H]([C@@H](C)CC)NC1=O [compound 114] ({CH2CO}-AV[NMePhe(3-Cl)]V[Trp(7-aza)]NYY(Me)[Nva(3-Et)]I[Nle(6-morpholino)]R[4Pal][NMePhe(4-COOH)]C[PEG4]-NH2; thioether N-15) | 1.33 | 10.6 | – | –
CCC(CC)[C@@H]1NC(=O)[C@H](Cc2ccc(OCC(=O)O)cc2)NC(=O)[C@H](Cc2ccc(N)nc2)NC(=O)[C@H](CC(N)=O)NC(=O)[C@H](Cc2cn(CC(=O)O)c3ccccc23)NC(=O)[C@H](C(C)C)NC(=O)[C@H](Cc2cccc(Cl)c2)N(C)C(=O)[C@H](C(C)C)NC(=O)[C@H](C)NC(=O)CSC[C@@H](C(=O)NCCOCCOCCOCCOCCC(N)=O)NC(=O)[C@H](Cc2ccc(C(=O)O)cc2)N(C)C(=O)[C@H](Cc2ccncc2)NC(=O)[C@H](CCCNC(=N)N)NC(=O)[C@H](CCC(=O)NCCOCCOCCOCCOCCOCCOCCOCCOC)NC(=O)[C@H]([C@@H](C)CC)NC1=O [compound 50] ({CH2CO}-AV[NMePhe(3-Cl)]V[Trp(1-CH2COOH)]N[3Pal(6-NH2)]Y(Carboxymethyl)[Nva(3-Et)]IE(NH(CH2CH2O)8Me)R[4Pal][NMePhe(4-COOH)]C[PEG4]-NH2; thioether N-15) | – | – | 6500 | 1780
CC[C@H](C)[C@@H]1NC(=O)[C@H](Cc2ccc(OCC(=O)O)cc2)NC(=O)[C@H](Cc2ccc(N)nc2)NC(=O)[C@H](CC(N)=O)NC(=O)[C@H](Cc2c[nH]c3ncccc23)NC(=O)[C@H](C(C)C)NC(=O)[C@H](Cc2cccc(Cl)c2)N(C)C(=O)[C@H](C(C)C)NC(=O)[C@H](C)NC(=O)CSC[C@@H](C(=O)NCCOCCOCCOCCOCCC(N)=O)NC(=O)[C@H](Cc2ccc(O)cc2)N(C)C(=O)[C@H](Cc2ccncc2)NC(=O)[C@H](CCCCN2CCOCC2)NC(=O)[C@H](CCCCNC(=O)N2CCN(CC(=O)O)CC2)NC(=O)[C@H]([C@@H](C)CC)NC1=O [compound 15] ({CH2CO}-AV[NMePhe(3-Cl)]V[Trp(7-aza)]N[3Pal(6-NH2)]Y(Carboxymethyl)IIK([CO-Piperazinyl(4-CH2COOH)])[Nle(6-morpholino)][4Pal][NMeY]C[PEG4]-NH2; thioether N-15) | – | – | 15.9 | 102

The remaining lines, values ahead:

Kd [1, 3] [nM] | Kd [2, 4] [nM] | Kd ([1]; pH 7.4, single-cycle kinetics) [nM] | Kd ([2]; pH 6.0, single-cycle kinetics) [nM] | SMILES
– | – | 5.43 | 56.5 | CC[C@H](C)[C@@H]1NC(=O)[C@H](Cc2ccc(OC)cc2)NC(=O)[C@H](Cc2ccc(N)nc2)NC(=O)[C@H](CC(N)=O)NC(=O)[C@H](Cc2cnc3ccccn23)NC(=O)[C@H](C(C)C)NC(=O)[C@H](Cc2cccc(Cl)c2)N(C)C(=O)[C@H](C(C)C)NC(=O)[C@H](C)NC(=O)CSC[C@@H](C(=O)NCCOCCOCCOCCOCCC(N)=O)NC(=O)[C@H](Cc2ccc(O)cc2)N(C)C(=O)[C@H](Cc2ccncc2)NC(=O)[C@H](CCCNC(=N)N)NC(=O)[C@H](CCCNC(=N)N)NC(=O)[C@H]([C@@H](C)CC)NC1=O [compound 65] ({CH2CO}-AV[NMePhe(3-Cl)]V[Ala(imidazo(1,2-a)pyr3yl)]N[3Pal(6-NH2)]Y(Me)IIRR[4Pal][NMeY]C[PEG4]-NH2; thioether N-15)
– | – | 7.1 | 110 | CC[C@H](C)[C@@H]1NC(=O)[C@H](Cc2ccc(OC)cc2)NC(=O)[C@H](Cc2ccc(N)nc2)NC(=O)[C@H](CC(N)=O)NC(=O)[C@H](Cc2c[nH]c3ncccc23)NC(=O)[C@H](C(C)C)NC(=O)[C@H](Cc2cccc(Cl)c2)N(C)C(=O)[C@H](C(C)C)NC(=O)[C@H](C)NC(=O)CSC[C@@H](C(=O)NCCOCCOCCOCCOCCC(N)=O)NC(=O)[C@H](Cc2ccc(O)cc2)N(C)C(=O)[C@H](Cc2ccncc2)NC(=O)[C@H](CCCNC(=N)N)NC(=O)[C@H](CCC(=O)NCCOCCOCCOCCOCCOCCOCCOCCOC)NC(=O)[C@H]([C@@H](C)CC)NC1=O [compound 11]
– | – | 2.94 | 40.3 | CC[C@H](C)[C@@H]1NC(=O)[C@H](Cc2ccc(OCC(=O)N3CCN(CC(=O)O)CC3)cc2)NC(=O)[C@H](Cc2ccc(O)cc2)NC(=O)[C@H](CC(N)=O)NC(=O)[C@H](Cc2c[nH]c3ncccc23)NC(=O)[C@H](C(C)C)NC(=O)[C@H](Cc2cccc(Cl)c2)N(C)C(=O)[C@H](C(C)C)NC(=O)[C@H](C)NC(=O)CSC[C@@H](C(=O)NCCOCCOCCOCCOCCC(N)=O)NC(=O)[C@H](Cc2ccc(O)cc2)N(C)C(=O)[C@H](Cc2ccncc2)NC(=O)[C@H](CCCNC(=N)N)NC(=O)[C@H](CCC(N)=O)NC(=O)[C@H]([C@@H](C)CC)NC1=O [compound 16]
– | – | 5.37 | 101 | CC[C@H](C)[C@@H]1NC(=O)[C@H](Cc2ccc(OCC(=O)N3CCN(CC(=O)O)CC3)cc2)NC(=O)[C@H](Cc2ccc(O)cc2)NC(=O)[C@H](CC(N)=O)NC(=O)[C@H](Cc2c[nH]c3ncccc23)NC(=O)[C@H](C(C)C)NC(=O)[C@H](Cc2cccc(Cl)c2)N(C)C(=O)[C@H](C(C)C)NC(=O)[C@H](C)NC(=O)CSC[C@@H](C(=O)NCCOCCOCCOCCOCCC(N)=O)NC(=O)[C@H](Cc2ccc(O)cc2)N(C)C(=O)[C@H](Cc2cccc(C(=O)O)c2)NC(=O)[C@H](CCCCN2CCOCC2)NC(=O)[C@H](CCC(=O)NCCOCCOCCOCCOCCOCCOCCOCCOC)NC(=O)[C@H]([C@@H](C)CC)NC1=O [compound 21] ({CH2CO}-AV[NMePhe(3-Cl)]V[Trp(7-aza)]NYY(CH2CON(CH2CH2)2NCH2COOH)IIE(NH(CH2CH2O)8Me)[Nle(6-morpholino)][Phe(3-COOH)][NMeY]C[PEG4]-NH2; thioether N-15)
– | – | 1.38 | 9.2 | CCC(CC)[C@@H]1NC(=O)[C@H](Cc2ccc(OC)cc2)NC(=O)[C@H](Cc2ccc(O)cc2)NC(=O)[C@H](CC(N)=O)NC(=O)[C@H](Cc2c[nH]c3ncccc23)NC(=O)[C@H](C(C)C)NC(=O)[C@H](Cc2cccc(Cl)c2)N(C)C(=O)[C@H](C(C)C)NC(=O)[C@H](C)NC(=O)CSC[C@@H](C(=O)NCCOCCOCCOCCOCCC(N)=O)NC(=O)[C@H](Cc2ccc(O)cc2)N(C)C(=O)[C@H](Cc2ccncc2)NC(=O)[C@H](CCCNC(=N)N)NC(=O)[C@H](CCCCN2CCOCC2)NC(=O)[C@H]([C@@H](C)CC)NC1=O [compound 54] ({CH2CO}-AV[NMePhe(3-Cl)]V[Trp(7-aza)]NYY(Me)[Nva(3-Et)]I[Nle(6-morpholino)]R[4Pal][NMeY]C[PEG4]-NH2; thioether N-15)
– | – | 1.73 | 13.4 | CC[C@H](C)[C@@H]1NC(=O)[C@H](Cc2ccc(OCC(=O)NC[C@H](O)[C@@H](O)[C@H](O)[C@H](O)CO)cc2)NC(=O)[C@H](Cc2ccc(O)cc2)NC(=O)[C@H](CC(N)=O)NC(=O)[C@H](Cc2c[nH]c3ncccc23)NC(=O)[C@H](C(C)C)NC(=O)[C@H](Cc2cccc(Cl)c2)N(C)C(=O)[C@H](C(C)C)NC(=O)[C@H](C)NC(=O)CSC[C@@H](C(=O)NCCOCCOCCOCCOCCC(N)=O)NC(=O)[C@H](Cc2ccc(O)cc2)N(C)C(=O)[C@H](Cc2ccncc2)NC(=O)[C@H](CCCNC(=N)N)NC(=O)[C@H](CCC(=O)NC[C@H](O)[C@@H](O)[C@H](O)[C@H](O)CO)NC(=O)[C@H]([C@@H](C)CC)NC1=O [compound 26]
– | – | 2.47 | 44 | CC[C@H](C)[C@@H]1NC(=O)[C@H](Cc2ccc(OCC(=O)N3CCN(CC(=O)O)CC3)cc2)NC(=O)[C@H](Cc2ccc(O)cc2)NC(=O)[C@H](CC(N)=O)NC(=O)[C@H](Cc2cn(CC(=O)O)c3ccccc23)NC(=O)[C@H](C(C)C)NC(=O)[C@H](Cc2cccc(Cl)c2)N(C)C(=O)[C@H](C(C)C)NC(=O)[C@H](C)NC(=O)CSC[C@@H](C(=O)NCCOCCOCCOCCOCCC(N)=O)NC(=O)[C@H](Cc2ccc(O)cc2)N(C)C(=O)[C@H](Cc2cccc(C(=O)O)c2)NC(=O)[C@H](CCCNC(=N)N)NC(=O)[C@H](CCC(N)=O)NC(=O)[C@H]([C@@H](C)CC)NC1=O [compound 36]
